From paper PMC8330735 (Journal of Enzyme Inhibition and Medicinal Chemistry, 2021) come the findings set out here.

Data set [1] deals with carrageenan-induced rat paw oedema. The experiment in a line: Carrageenan-induced rat paw oedema test. Conditions: compounds and celecoxib 50 mg/kg, ibuprofen and indomethacin 20 mg/kg. In kind it is in vivo. The method, then:
The rats were divided into nine groups (n = 5/group). All tested compounds were suspended in 1% Tween-80. Group 1, controls, were given the vehicle (1% Tween80, 10 ml/kg). […] The rats were given the drugs 1 h before the injection of carrageenan solution (1% in 0.9% NaCl, 0.1 ml) (Sigma Aldrich, USA) in the sub-planter tissue of the right hind paw. The paw thickness (mm) was measured using a calliper before (0 h) and after carrageenan injection at 1, 2, 3, 4, 5 and 24 h. The inhibition of oedema thickness was calculated using the following formula (control– drug/control) × 100.
For orientation: Carrageenan injected into the paw causes an acute inflammation.

Data set [2] has as its system acetic acid-induced writhing in mice. The experiment in a line: Acetic acid induced writhing test. The format is in vivo. Conditions: 50 mg/kg p.o., 1 h prior acetic acid i.p., within 30 min. On the procedure:
The number of writhes, manifested as extension of hind legs, constriction of abdomen, or turning of trunk was recorded within 30 min.
(In general: An intraperitoneal irritant provokes the stretching counted in writhing tests.)

The next data set concerns HCT116 cells. Briefly: MTS cell viability assay HCT116. Conditions: Homo sapiens, HCT-116, 48 h, cell line scarcely expressing COX-2. In kind it is cell-based. On the procedure: (§1) Human colorectal cancer cell lines, HCT116 and HT29, and RAW 264.7 macrophages were obtained from ATCC (Manassas, VA). HCA7 colorectal cancer cell line was obtained from Sigma. HT29 and HCT116 cells were cultured in McCoy's 5 A medium (Sigma Aldrich, St. Louis, MO) containing 10% heat-inactivated foetal bovine serum (HI-FBS) (Gibco, USA), 100 μg/mL streptomycin (Invitrogen, USA), and […] penicillin (Invitrogen, USA)[40]. HCA7 and RAW 264.7 cells were cultured in Dulbecco's minimal essential media (DMEM, Invitrogen) containing 10% HI-FBS, sodium pyruvate (1 mM), penicillin ([…]), and streptomycin (100 mg/m)[41]^,[42].
(§2) Cells were cultured in 96‐well plates for 48 h and then treated with serum-free media containing different concentrations of the tested compounds (12.5, 25, 50, 100 and 150 µM). After 48 h., MTS reagent (Promega) was added as directed by the manufacturer, and then, the absorbance was measured at 495 nm. The absorbance is proportional to the number of viable cells. IC50 was calculated from the dose-response curves as described previously[45] using GraphPad Prism 8 software (GraphPad Software, San Diego, CA).
A general note: Tetrazolium assays rely on reduction of a dye to a coloured formazan, in cell work by metabolically active cells.

In a further data set the test system is HT29 cells. Briefly: MTS cell viability assay HT29. In kind it is cell-based. Conditions: Homo sapiens, HT-29, 48 h, cell line moderately expressing COX-2. The method, then:
as §1, §2

In the next data set the test system is HCA7 cells. The experiment in a line: MTS cell viability assay HCA7. In kind it is cell-based. Conditions: Homo sapiens, HCA-7, 48 h, cell line highly expressing COX-2. The method, then:
as §1, §2

For data set [3], the system named is stomach ulceration in rats. Conditions: rat, in vivo, 2 days.
Protocol: The rats from the previous experiment were fasted for 12 h., followed by the administration of additional doses of the selected compounds or the two references for two consecutive days. Six hrs after the last treatment, the animals were sacrificed, and their stomachs were removed, washed with saline solution (0.9%) and examined for ulceration using a magnifying lens. The ulcer scores were estimated according to the method prescribed by Kulkarni and as detailed in our previous studies[36–38]. The following scores were individually assigned to each lesion: normal coloured stomach, 0; red colouration, 0.5; spot ulcers, 1; haemorrhagic streaks, 1.5; ulcer >3 but <5 mm, 2; and ulcers >5 mm, 3.

Consider `Cc1ccc(-c2cc(C(F)(F)F)nn2-c2ccc(S(N)(=O)=O)cc2)cc1` [Celecoxib, reference compound], for which the “Mean oedema thickness 1h” value in data set [1] (1 h after carrageenan, mean ± SEM, n = 5) was found to be 1.27 ± 0.07 mm. The “Mean oedema thickness 2h” value in data set [1] (2 h after carrageenan, mean ± SEM, n = 5) was determined as 1.51 ± 0.07 mm. In data set [1] (3 h after carrageenan, mean ± SEM, n = 5), the “Mean oedema thickness 3h” value came to 1.49 ± 0.14 mm. For the same compound, the “Mean oedema thickness 4h” value in data set [1] (4 h after carrageenan, mean ± SEM, n = 5) amounted to 1.39 ± 0.12 mm. Also, in data set [1] (5 h after carrageenan, mean ± SEM, n = 5), the “Mean oedema thickness 5h” value is on record as 1.19 ± 0.08 mm. The “Mean oedema thickness 24h” value in data set [1] (24 h after carrageenan, mean ± SEM, n = 5) is 0.53 ± 0.12 mm. The “Mean oedema thickness 0h” value in data set [1] (before carrageenan (0 h), mean ± SEM, n = 5) worked out at 0.00 ± 0.00 mm. The same compound displayed an Average oedema inhibition% in data set [1] (from area under the curve of all time points) of 47.60%. In addition, in data set [2], the Number of writhes is 29.20 writhes. Moreover, the IC50 with HCT116 cells turned out to be 53.77 ± 0.05 µM; in the data set with HT29 cells, 5.82 ± 0.38 µM; with HCA7 cells it was 51.36 ± 0.04 µM. In data set [3], the “Average Ulcer number” value worked out at 0.2. The “Lesion Incidence (%)” value in data set [3] stood at 20%. In data set [3], the “Number of rats with ulcer” value worked out at 1.

Broadly, the IC50 is the concentration that gives 50% inhibition.
